# Measurements: US20230242663A1, “COMBINATION THERAPY COMPRISING ANTI-CD137 ANTIBODIES” (Adagene PTE. LTD., priority 2020, published 2023)
# Tests used:
# [1] = system: HUT78 human TCL cells; assay: Dose-dependent effects on CD137L protein surface expression (flow cytometry); type: cell-based; conditions: for regulation of CD137L protein surface expression, HUT78 Protein: summary Table 3; for CD137L protein surface expression: HUT78 cells, dose range, 24 hours; as to regulation of CD137L protein surface expression, HUT78 Protein: key: 'Y' indicates the treatment caused upregulation; 'N' indicates the treatment did not cause upregulation
# Protocol: HUT78 cells, cultured in 6-well plates in RPMI-1640 medium containing 20% fetal bovine serum (FBS), were treated with a dose range of Romidepsin (0-0.1 μM), Bortezomib (0-1.0 μM), Belinostat (0-1.0 μM), Chidamide (0-3.0 μM), or Vincristine (0-0.03 μM) for 24 hours. Cells (1×10^5) were washed twice in Dulbecco's Phosphate Buffered Saline (DPBS), stained with either Phycoerythrin (PE)-conjugated Isotype Control (Biolegend catalog #400112) and anti-human-CD137L (Biolegend catalog #311504) antibodies (1 μL antibody in 100 μL DPBS, FIG. 5A-5E) or PE-Cy7-conjugated Isotype Control (Thermofisher catalog #25-4714-80) and anti-human-CD137L (Thermofisher catalog #25-5906-42) antibodies (1 μL antibody in 100 μL DPBS, FIG. 5F-5H) at 4° C. for 30 minutes, washed twice in DPBS, and resuspended in 100 μL DPBS for flow cytometry analysis.
# [2] = system: HUT102 human TCL cells; assay: mRNA expression, QuantiGene Plex assay, HUT102; type: cell-based; conditions: for regulation of CD137L mRNA expression, HUT102 mRNA: summary Table 3; for CD137L mRNA expression / CD137 mRNA expression / CD274 mRNA expression: HUT102 cells, dose range, 24 hours; as to regulation of CD137L mRNA expression, HUT102 mRNA: key: 'Y' indicates the treatment caused upregulation; 'N' indicates the treatment did not cause upregulation
# Protocol: (§1) HUT102, HUT78, and SU-DHL1 cells, cultured in 96-well plates, were treated with a dose range of Romidepsin (0-0.1 μM), Bortezomib (0-1.0 μM), Belinostat (0-10.0 μM), or Vincristine (0-0.03 μM) for 24 hours. Cells were lysed with Lysis Buffer and cell lysates were used for the QuantiGene Plex assay (7-gene multiplex (CD80, CD86, CD274, CD137, CD137L, HPRT1, GAPDH))
# [3] = system: HUT78 human TCL cells; assay: mRNA expression, QuantiGene Plex assay, HUT78; type: cell-based; conditions: for regulation of CD137L mRNA expression, HUT78 mRNA: summary Table 3; for CD137L mRNA expression: HUT78 cells, dose range, 24 hours; as to regulation of CD137L mRNA expression, HUT78 mRNA: key: 'Y' indicates the treatment caused upregulation; 'N' indicates the treatment did not cause upregulation
# Protocol: as §1
# [4] = system: SU-DHL1 human TCL cells; assay: mRNA expression, QuantiGene Plex assay, SU-DHL1; type: cell-based; conditions: for regulation of CD137L mRNA expression, SU-DHL1 mRNA: summary Table 3; as to regulation of CD137L mRNA expression, SU-DHL1 mRNA: key: 'Y' indicates the treatment caused upregulation; 'N' indicates the treatment did not cause upregulation
# Protocol: as §1
# [5] = system: HUT78 human TCL cells; assay: Time-dependent effects on CD137L protein surface expression (flow cytometry); type: cell-based; conditions: 0.003 μM Romidepsin or 0.01 μM Bortezomib, 2, 6, 16 or 24 hours
# Protocol: HUT78 cells, cultured in 6-well plates in RPMI-1640 medium containing 20% FBS, were treated with 0.003 μM Romidepsin or 0.01 μM Bortezonib for 2, 6, 16, or 24 hours. Cells (1×103) were washed twice in DPBS, stained with PE-conjugated Isotype Control (Biolegend catalog #400112) and anti-human-CD137L (Biolegend catalog #311504) antibodies (1 μL antibody in 100 μL DPBS) at 4° C. for 30 minutes, washed twice in DPBS, and resuspended in 100 μL DPBS for flow cytometry analysis.
# [6] = system: HUT78 human TCL cells; assay: Cell viability of HUT78 cells (CellTiter-Glo); type: cell-based; conditions: dose range, 24 hours
# Protocol: (§2) HUT78 cells, cultured in 96-well plates in RPMI-1640 medium containing 20% fetal bovine serum (FBS), were treated with a dose range of Romidepsin (0-0.1 μM), Bortezomib (0-1.0 μM), or Chidamide (0-3.0 μM) for 24 hours. The CellTiter-Glo assay (Promega) was used to assess cell viability according to the manufacturer's instructions.
# [7] = system: purified human T cells; assay: Cell viability of purified human T cells (CellTiter-Glo); type: cell-based; conditions: dose range, 24 hours
# Protocol: as §2, with “T cells were purified from human PBMCs (>95% purity, data not shown),” for “HUT78 cells,”, “10%” for “20%”, “and” for “were”
# [8] = system: A20 B cell lymphoma cells; type: in vivo, BALB/c mice; conditions: ADG106 5 mg/kg twice a week for 4 doses; Bendamustine 12.5 mg/kg once a day for 4 doses; intraperitoneal
# Protocol: BALB/c mice (n=8 per group, female, 6-8 weeks old) were transplanted subcutaneously with 5×10^5 A20 B cell lymphoma cells. After tumors were established (i.e., having reached a volume of 100 mm^3), mice were treated with vehicle, ADG106 (5 mg/kg, twice a week for 4 doses by intraperitoneal injection), Bendamustine (12.5 mg/kg, once a day for 4 doses by intraperitoneal injection), or ADG106 (5 mg/kg, twice a week for 4 doses by intraperitoneal injection) in combination with Bendamustine (12.5 mg/kg, once a day for 4 doses by intraperitoneal injection). Tumor growth was monitored twice weekly and reported as mean tumor volume±SEM over time.
# [9] = system: human T lymphocytes; conditions: Kim K. et al., Immunology 2002; cited from earlier work
# [10] = SU-DHL1 cells, dose range, 24 hours
Compound,"regulation of CD137L protein surface expression, HUT78 Protein [1]",CD137L protein surface expression [1],"regulation of CD137L mRNA expression, HUT102 mRNA [2]",CD137L mRNA expression [2],"regulation of CD137L mRNA expression, HUT78 mRNA [3]",CD137L mRNA expression [3],"regulation of CD137L mRNA expression, SU-DHL1 mRNA [4]","CD137L mRNA expression [4, 10]",expression of CD137 in human T lymphocytes [9],other results
"CC[C@]1(O)C[C@H]2CN(CCc3c([nH]c4ccccc34)[C@@](C(=O)OC)(c3cc4c(cc3OC)N(C=O)[C@H]3[C@@](O)(C(=O)OC)[C@H](OC(C)=O)[C@]5(CC)C=CCN6CC[C@]43[C@@H]65)C2)C1 [Vincristine, vincristine]",N,did not show upregulation,Y,induced upregulation,N,not,N,not,,CD137 mRNA expression [2]: induced
"CC(C)C[C@H](NC(=O)[C@H](Cc1ccccc1)NC(=O)c1cnccn1)B(O)O [Bortezomib, bortezomib]",Y,dose-dependent upregulation,Y,dose-dependent upregulation,N,not,Y,dose-dependent upregulation,,CD137L protein surface expression over time [5]: time-dependent upregulation; CD274 mRNA expression [2]: induced; cell viability of HUT78 human TCL cells [6]: inhibited cell viability; viability of purified human T cells [7]: minimal or no effect
"ADG106: anti-CD137 antibody; heavy chain SEQ ID NO: 10, light chain SEQ ID NO: 11; used as mouse IgG1 in Example 10",,,,,,,,,,tolerability in mice as monotherapies [8]: well tolerated
"CO[C@@]12[C@H](COC(N)=O)C3=C(C(=O)C(C)=C(N)C3=O)N1C[C@@H]1N[C@@H]12 [Mitomycin, mitomycin]",,,,,,,,,induce expression of CD137,
"C/C=C1\NC(=O)[C@H]2CSSCC/C=C/[C@H](CC(=O)N[C@H](C(C)C)C(=O)N2)OC(=O)[C@H](C(C)C)NC1=O [Romidepsin, romidepsin]",Y,,Y,,Y,,Y,,,
"Nc1cc(F)ccc1NC(=O)c1ccc(CNC(=O)/C=C/c2cccnc2)cc1 [Chidamide, chidamide]",Y,,,,,,,,,
COc1cccc2c1C(=O)c1c(O)c3c(c(O)c1C2=O)C[C@@](O)(C(=O)CO)C[C@@H]3O[C@H]1C[C@H](N)[C@H](O)[C@H](C)O1 [doxorubicin],,,,,,,,,induce expression of CD137,
"Cn1c(CCCC(=O)O)nc2cc(N(CCCl)CCCl)ccc21 [Bendamustine, bendamustine]",,,,,,,,,,tolerability in mice as monotherapies [8]: well tolerated
"O=C(/C=C/c1cccc(S(=O)(=O)Nc2ccccc2)c1)NO [Belinostat, belinostat]",Y,dose-dependent upregulation,Y,dose-dependent upregulation,Y,dose-dependent upregulation,Y,dose-dependent upregulation,,"CD137 mRNA expression [2]: induced; CD274 mRNA expression [2]: induced; CD137 mRNA expression [4, 10]: induced"
bleomycin,,,,,,,,,induce expression of CD137,
